Measurements published in patent US10300155B2, “Alpha-synuclein ligands” (Washington University, priority 2015, dated 2019).
Values joined by “and” are separate entries in the source; they are usually repeats but may differ in a detail not shown here. Equal values may be shown once. Read-outs that look alike come from different tables or passages of the source.

Legend:
Assay type in all cases: binding
tau fibrils = tau fibrils (Homo sapiens, UniProt P10636); assay: ThT competitive assay for tau fibrils (Table 3); set-up: made in house; host or cells: E. coli; conditions: for EC50: tau fibrils
Sequence of tau fibrils (P10636 560-692 limits assumed): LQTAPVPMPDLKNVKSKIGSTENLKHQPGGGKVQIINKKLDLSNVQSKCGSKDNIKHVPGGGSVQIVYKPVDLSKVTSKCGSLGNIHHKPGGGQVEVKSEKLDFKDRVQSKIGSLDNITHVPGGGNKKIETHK
Method: Tau fibril recombinant protein was produced in E. coli. Additional preparation was performed in a similar fashion to Example 115.

α-synuclein fibrils [1] = target: T1, α-synuclein fibrils (Homo sapiens, UniProt P37840); assay: ThT competitive assay for α-synuclein fibrils (Table 1); conditions: for EC50: α-synuclein fibrils
T1 construct: made in house; host or cells: E. coli BL21(DE3)RIL
Method: Upon binding to amyloid fibrils, a peak at approximately 440 nm becomes dominant with the fluorescent emission maximum shifted to 480 nm. This is accompanied by a strong enhancement of the fluorescence.
α-Synuclein recombinant protein was produced in E. coli. […] Freshly transformed BL21 colonies were inoculated into 2 L baffled flasks containing 250 mL sterilized TB (1.2% bactotryptone, 2.4% yeast extract, 0.4% glycerol, 0.17 M KH2PO4, 0.72 M K2HPO4) with 50 μg/ml ampicillin, and incubated overnight at 37° C. with shaking.
To determine the concentration of fibrils, the reaction mixture (100 μL) was centrifuged at 18,000×g for 10 minutes to separate fibrils from monomer. The α-synuclein monomer and other soluble proteins in the supernatant were removed, and the fibril pellet was resuspended in 100 μL solution of Tris-HCl (20 mM) and NaCl (100 mM). This fibril suspension was used in a bicinchoninic acid (BCA) protein assay along with a bovine serum albumin (BSA) standard curve to determine the concentration of fibrils in the 72 hour fibril reaction mixture.
To prepare the fibrils for performing binding assays, the fibril reaction mixture prepared above was centrifuged at 18,000×g for 10 minutes.
Once the ThT-α-synuclein saturation binding curve and dissociation constant (Kd) were determined the competitive assay for determining the binding affinity of various test compounds was conducted. […] The mixture was incubated at room temperature for 60 minutes on the shaking plate. The fluorescent intensity for each cell was measured by the fluorescence reader at λex and λem. The Ki value for each compound was calculated by the corresponding inhibition curve.
The Ki values were derived from the EC50 values using the Cheng-Prusoff equation: Ki=EC50/(1+[radioligand]/Kd). See FIGS. 17.1-31.2 for the inhibition curves for each compound in the ThioT competitive binding assay.

α-synuclein fibrils [2] = target: T1, α-synuclein fibrils; assay: Thioflavin T competition assay (Example 130, Table 9), α-synuclein fibrils
Method: Freshly transformed BL21 colonies were inoculated into 2 L baffled flasks containing 250 ml sterilized TB (1.2% bactotryptone, 2.4% yeast extract, 0.4% glycerol, 0.17 M KH2PO4, 0.72 M K2HPO4) with 50 μg/ml ampicillin, and incubated overnight at 37° C. with shaking.
Competition assays used a fixed concentration of α-syn, Aβ, or tau fibrils (1 μM), consisting of 3 μM, 50 nM and 4 μM of ThioflavinT respectively. […] To optimize the determination of selectivity, assays for all three fibril species were set up in parallel using a common set of intermediate compound dilutions for each analog. Reactions were incubated at room temperature for 1.5 h before quantifying bound ligand as described above for the saturation binding assay. […] All data points were performed in triplicate. Nonspecific fluorescence was measured in parallel reactions containing ThioT plus each concentration of competitor but no fibrils, and these measurements were subtracted from the reactions with fibrils to yield fibril-specific fluorescence. Data were analyzed using Graphpad. Prism software (version 4.0) to obtain EC50 values by fitting the data to the equation Y=bottom+(top-bottom)/(1+10^(x−log EC50)).

[3] = average, read-out: Ki (nM) α-syn (avg)
[4] = individual determinations, read-out: Ki (nM) α-syn
[5] = average, read-out: EC50 (nM) EC50 (avg)
[6] = individual determinations, read-out: EC50 (nM) EC50
[7] = average, read-out: α-synuclein EC50 (avg)
[8] = average, read-out: α-synuclein Ki (avg)
[9] = individual determinations, read-out: α-synuclein EC50
[10] = individual determinations, read-out: α-synuclein Ki

COc1ccc(/C=C/c2ccsc2)cc1 [TZ-34-28]
Ki (tau fibrils; average, read-out: Ki (nM) Tau (avg)): 876 nM | Ki (tau fibrils; individual determinations, read-out: Ki (nM) Tau): 600 nM and 1150 nM | EC50 (tau fibrils; average, read-out: EC50m (nM) EC50 (avg)): 2150 nM | EC50 (tau fibrils; individual determinations, read-out: EC50m (nM) EC50): 1470 nM and 2830 nM | Ki (α-synuclein fibrils [1]; [3]): 172 nM | Ki (α-synuclein fibrils [1]; [4]): 43.1 nM and 167 nM and 113 nM and 104 nM and 256 nM and 347 nM | EC50 (α-synuclein fibrils [1]; [5]): 449 nM | EC50 (α-synuclein fibrils [1]; [6]): 113 nM and 437 nM and 297 nM and 271 nM and 670 nM and 907 nM

COc1ccc2nc(/C=C/c3ccnc(Br)c3)ccc2c1 [TZ-36-36]
EC50 (α-synuclein fibrils [2]; [7]): 396 nM | Ki (α-synuclein fibrils [2]; [8]): 152 nM | EC50 (α-synuclein fibrils [2]; [9]): 335 nM and 457 nM | Ki (α-synuclein fibrils [2]; [10]): 128 nM and 175 nM | Ki (α-synuclein fibrils [1]; [3]): 152 nM | Ki (α-synuclein fibrils [1]; [4]): 128 nM and 175 nM | EC50 (α-synuclein fibrils [1]; [5]): 396 nM | EC50 (α-synuclein fibrils [1]; [6]): 335 nM and 457 nM

COc1ccc2nc(/C=C/c3ccoc3)ccc2c1 [TZ-36-54]
EC50 (α-synuclein fibrils [2]; [7]): 178 nM | Ki (α-synuclein fibrils [2]; [8]): 68.5 nM | EC50 (α-synuclein fibrils [2]; [9]): 169 nM and 188 nM | Ki (α-synuclein fibrils [2]; [10]): 65 nM and 72 nM | Ki (α-synuclein fibrils [1]; [3]): 68.5 nM | Ki (α-synuclein fibrils [1]; [4]): 65 nM and 72 nM | EC50 (α-synuclein fibrils [1]; [5]): 178 nM | EC50 (α-synuclein fibrils [1]; [6]): 169 nM and 188 nM

COc1cc(/C=C/c2ccc3cc(OC(C)C)ccc3n2)ccn1 [TZ-36-138]
EC50 (α-synuclein fibrils [2]; [7]): 128 nM | Ki (α-synuclein fibrils [2]; [8]): 49 nM | EC50 (α-synuclein fibrils [2]; [9]): 128 nM | Ki (α-synuclein fibrils [2]; [10]): 49 nM | Ki (α-synuclein fibrils [1]; [3]): 49 nM | Ki (α-synuclein fibrils [1]; [4]): 49 nM | EC50 (α-synuclein fibrils [1]; [5]): 128 nM | EC50 (α-synuclein fibrils [1]; [6]): 128 nM
